The source of these data is ChEMBL document CHEMBL1201862, “PubChem BioAssay data set” (2004).

Some test systems named below: COLO 205; EKVX; HCC 2998; HCT-15; HOP-92; HT-29; KM12; MOLT-4; Malme-3M; NCI-H226; NCI-H23; OVCAR-3; OVCAR-4; OVCAR-8; SF-295; SK-MEL-28; SNB-19; SR; UACC-257.
Common to all, as to assay: NCI anticancer screen, dose series, 48 h

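Five concentrations, 48 hours, 96-well plates. Here, GI50 denotes the concentration required for 50% inhibition of growth.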 Activity calls are given as the source filed them. Rule as the data show it: active = GI50 up to about 1.1 µM and inactive = higher.

In the case of `CC(C)CC1C(=O)NCCC(NC(=O)C(Cc2ccc(OC(C)(C)C)cc2)NC(=O)OC(C)(C)C)C(=O)NC(Cc2ccccc2)C(=O)NC(Cc2ccccc2)NC1=O` (stereo not given), the GI50 was 3.32 µM (inactive) in the assay with COLO 205; 4.89 µM (inactive) with EKVX; 17.3 µM (inactive) in the assay with HCC 2998; more than 100 µM with HCT-15; 11.2 µM (inactive) in the assay on HOP-92; 3.67 µM (inactive) in the assay with HT-29. In addition, the GI50 in the assay on KM12 is 43.6 µM (inactive); with MOLT-4 it was 1.51 µM (inactive); with Malme-3M it was 13.6 µM (inactive); with NCI-H226 it was 5.06 µM (inactive); in the assay on NCI-H23 it was 13.3 µM (inactive); in the assay on OVCAR-3, 4.6 µM (inactive). Moreover, the GI50 in the assay on OVCAR-4 is 14.9 µM (inactive); in the assay with OVCAR-8, 5.68 µM (inactive); with SF-295, 5.75 µM (inactive); with SK-MEL-28, 18.3 µM (inactive); in the assay on SNB-19, 14.4 µM (inactive); with SR, 13.2 µM (inactive). Also, the GI50 with UACC-257 is 12.1 µM (inactive).

Consider `Brc1ccc2c(-c3nc(-c4c[nH]c5ccc(Br)cc45)cs3)c[nH]c2c1`, for which the GI50 is 2.54 µM (inactive) with COLO 205; 1.24 µM (inactive) in the assay on EKVX; 2.48 µM (inactive) with HCC 2998; 3.39 µM in the assay with HCT-15; 3.44 µM (inactive) with HOP-92; 1.86 µM (inactive) with HT-29. Moreover, the GI50 is 2.62 µM (inactive) in the assay on KM12; 2.46 µM (inactive) in the assay on MOLT-4; 4.24 µM (inactive) in the assay on Malme-3M; 1.94 µM (inactive) with NCI-H226; 3.24 µM (inactive) in the assay with NCI-H23; 10.2 µM (inactive) with OVCAR-3. Also, the GI50 in the assay with OVCAR-4 was 9.33 µM (inactive); in the assay on OVCAR-8, 7.14 µM (inactive); in the assay with SF-295 it was 3.92 µM (inactive); in the assay on SK-MEL-28, 11.3 µM (inactive); in the assay with SNB-19, 4.25 µM (inactive); in the assay on SR it was 3.15 µM (inactive). Also, in the assay on UACC-257, the GI50 was 8.75 µM (inactive).

For `CC(C)(C)C(O)CC(O)(C(F)(F)F)C(F)(F)F` (stereo not given), the GI50 is > 100 µM (inactive) in the assay on COLO 205; > 100 µM (inactive) in the assay with EKVX; > 100 µM (inactive) in the assay on HCC 2998; more than 100 µM in the assay on HCT-15; > 100 µM (inactive) with HOP-92; > 100 µM (inactive) in the assay on HT-29. In addition, the GI50 in the assay with KM12, in the assay with MOLT-4, in the assay on Malme-3M, with NCI-H226, in the assay on NCI-H23 and in the assay on OVCAR-3 was > 100 µM (inactive) each time. Moreover, the GI50 in the assay with OVCAR-4, in the assay on OVCAR-8, in the assay on SF-295, in the assay on SK-MEL-28, in the assay with SNB-19 and in the assay with SR was > 100 µM (inactive) throughout. In addition, the GI50 in the assay on UACC-257 is > 100 µM (inactive).

On to `O=S(=O)(O)c1ccc(/N=N/c2ccc(/N=N/c3c(O)ccc4ccc(S(=O)(=O)O)cc34)cc2)cc1`, for which the GI50 is > 100 µM (inactive) in the assay on COLO 205; > 100 µM (inactive) in the assay on EKVX; > 100 µM (inactive) in the assay with HCC 2998; more than 100 µM in the assay with HCT-15; > 100 µM (inactive) with HOP-92; > 100 µM (inactive) with HT-29. For the same compound, the GI50 with KM12, in the assay on MOLT-4, in the assay with Malme-3M, in the assay on NCI-H226, in the assay with NCI-H23 and in the assay with OVCAR-3 was > 100 µM (inactive) each time. In addition, the GI50 in the assay with OVCAR-4, in the assay on OVCAR-8, in the assay with SF-295, in the assay on SK-MEL-28, in the assay on SNB-19 and in the assay with SR was > 100 µM (inactive) in each case. For the same compound, in the assay with UACC-257, the GI50 is > 100 µM (inactive).

For `O=Cc1ccc(-c2nccc3c2[nH]c2ccccc23)o1`, the GI50 is > 100 µM (inactive) in the assay on COLO 205; > 100 µM (inactive) with EKVX; > 91.6 µM (inactive) with HCC 2998; more than 100 µM with HCT-15; 44.6 µM (inactive) in the assay on HOP-92; > 88.1 µM (inactive) in the assay with HT-29. Also, the GI50 in the assay with KM12 was > 100 µM (inactive); in the assay on MOLT-4, > 94.8 µM (inactive); in the assay on Malme-3M it was > 100 µM (inactive); in the assay with NCI-H226 it was 1.31 µM (inactive); in the assay on NCI-H23 it was > 100 µM (inactive); with OVCAR-3, > 75.7 µM (inactive). Moreover, the GI50 was 89.5 µM (inactive) with OVCAR-4; > 87.1 µM (inactive) with OVCAR-8; 20.4 µM (inactive) in the assay with SF-295; > 100 µM (inactive) with SK-MEL-28; > 100 µM (inactive) with SNB-19; > 100 µM (inactive) in the assay on SR. Moreover, the GI50 in the assay on UACC-257 was 24.5 µM (inactive).

For `O=C1OCOC2(CCCC2)C1c1ccccc1` (stereo not given), the GI50 with COLO 205 is > 100 µM (inactive); in the assay on EKVX, > 100 µM (inactive); in the assay on HCC 2998, > 100 µM (inactive); in the assay on HCT-15, more than 100 µM; with HOP-92 it was > 100 µM (inactive); in the assay with HT-29, > 100 µM (inactive). Also, the GI50 in the assay with KM12, with MOLT-4, in the assay with Malme-3M, with NCI-H226, with NCI-H23 and with OVCAR-3 was > 100 µM (inactive) in each case. For the same compound, the GI50 in the assay on OVCAR-4, with OVCAR-8, in the assay on SF-295, in the assay on SK-MEL-28, in the assay with SNB-19 and in the assay with SR was > 100 µM (inactive) throughout. Also, in the assay on UACC-257, the GI50 is > 100 µM (inactive).

For the compound `CC(=O)NC1C(OCc2ccccc2)OC(CO)C(O)C1OC(C)C(=O)NC(C)C(=O)NC(CCC(=O)NCCCCNc1c2ccccc2nc2cccc([N+](=O)[O-])c12)C(N)=O` (stereo not given), the GI50 in the assay on COLO 205 was 0.0327 µM (active); with EKVX, 0.0625 µM (active); in the assay on HCC 2998 it was 0.013 µM (active); in the assay on HCT-15 it was 0.00893 µM; with HOP-92, 0.0176 µM (active); in the assay on HT-29 it was 0.00514 µM (active). For the same compound, the GI50 was 0.0482 µM (active) in the assay with KM12; 0.148 µM (active) with MOLT-4; 0.0348 µM (active) with Malme-3M; 0.0962 µM (active) with NCI-H226; 0.0457 µM (active) in the assay on NCI-H23; 0.139 µM (active) in the assay on OVCAR-3. The GI50 is 0.242 µM (active) in the assay on OVCAR-4; 0.0228 µM (active) in the assay on OVCAR-8; 0.196 µM (active) with SF-295; 0.163 µM (active) in the assay with SK-MEL-28; 0.021 µM (active) in the assay with SNB-19; 0.00796 µM (active) with SR. For the same compound, the GI50 in the assay on UACC-257 is 0.121 µM (active).

As for `C=CC(C)(C)n1cc(C2=C(O)C(=O)C(c3cn(C(C)(C)C=C)c4ccccc34)=C(OC(C)=O)C2=O)c2ccccc21`, the GI50 was 1.67 µM (inactive) in the assay with COLO 205; 1.11 µM (active) with EKVX; 0.908 µM (active) with HCC 2998; 0.375 µM with HCT-15; 0.598 µM (active) in the assay with HOP-92; 0.807 µM (active) in the assay on HT-29. For the same compound, the GI50 with KM12 is 0.565 µM (active); in the assay on MOLT-4 it was 0.475 µM (active); in the assay with Malme-3M, 1.46 µM (inactive); in the assay with NCI-H226, 1.36 µM (inactive); in the assay with NCI-H23, 0.692 µM (active); in the assay on OVCAR-3, 1.04 µM (active). Further, the GI50 in the assay with OVCAR-4 is 1.32 µM (inactive); in the assay on OVCAR-8, 0.632 µM (active); with SF-295 it was 0.571 µM (active); in the assay with SK-MEL-28, 1.21 µM (inactive); in the assay with SNB-19, 1.04 µM (active); with SR, 0.298 µM (active). For the same compound, in the assay on UACC-257, the GI50 was 0.64 µM (active).

Turning to `COC(=O)c1ccc(NCc2cc(O)c3ccccc3c2O)cc1`, the GI50 was 5.06 µM (inactive) with COLO 205; 18.3 µM (inactive) with EKVX; 21.9 µM (inactive) in the assay with HCC 2998; 8.49 µM in the assay on HCT-15; 2.55 µM (inactive) in the assay with HOP-92; 18.7 µM (inactive) with HT-29. Also, the GI50 with KM12 is 14.8 µM (inactive); with MOLT-4, 2.81 µM (inactive); with Malme-3M, 2.56 µM (inactive); in the assay on NCI-H226, 16.4 µM (inactive); in the assay with NCI-H23 it was 6.65 µM (inactive); in the assay on OVCAR-3, 14.9 µM (inactive). Moreover, the GI50 in the assay on OVCAR-4 is 12.4 µM (inactive); with OVCAR-8 it was 24.4 µM (inactive); with SF-295, 7.5 µM (inactive); in the assay on SK-MEL-28, 5.65 µM (inactive); in the assay on SNB-19 it was 22.2 µM (inactive); with SR, 4.54 µM (inactive). Also, the GI50 in the assay on UACC-257 is 7.87 µM (inactive).

Turning to `CN(C)CCn1c(=O)c2ccc(NCCNCCO)c3c(=O)c4ccccc4n(c1=O)c23`, the GI50 in the assay with COLO 205 is 0.0703 µM (active); in the assay with EKVX, 0.231 µM (active); in the assay with HCC 2998 it was < 0.0329 µM (active); with HCT-15, 0.279 µM; in the assay on HOP-92, 0.03 µM (active); with HT-29, 0.0853 µM (active). Besides, the GI50 in the assay on KM12 was 0.249 µM (active); with MOLT-4, < 0.01 µM (active); in the assay on Malme-3M, 0.336 µM (active); in the assay with NCI-H226 it was 0.0348 µM (active); in the assay on NCI-H23 it was 0.0342 µM (active); in the assay with OVCAR-3 it was 0.288 µM (active). Moreover, the GI50 in the assay on OVCAR-4 was 0.514 µM (active); in the assay on OVCAR-8, 0.0632 µM (active); in the assay with SF-295, 0.0469 µM (active); in the assay with SK-MEL-28, 0.815 µM (active); in the assay on SNB-19, 0.182 µM (active); with SR, < 0.01 µM (active). For the same compound, the GI50 in the assay with UACC-257 is 0.368 µM (active).
